Experimental data taken from PMC11728683, “Colon-Targeted Poly(ADP-ribose) Polymerase Inhibitors Synergize Therapeutic Effects of Mesalazine Against Rat Colitis Induced by 2,4-Dinitrobenzenesulfonic Acid” (Pharmaceutics, 2024).
“Also recorded” adds a separate entry of the source. One block for each compound: values may come before it.

Legend:
[1] = Distribution coefficient (log D6.8), pH 6.8 isotonic phosphate buffer/n-octanol; format: physicochemical; conditions: n-octanol/pH 6.8 isotonic phosphate buffer; 1-octanol/isotonic phosphate buffer (pH 6.8)
Procedure: Distribution coefficients (log D6.8) of the PARP inhibitors and their derivatives were measured using a pH 6.8 isotonic phosphate buffer/n-octanol system, as described in a previous paper.

[2] = Incubation in the cecal contents of rats (colonic activation); format: in vitro ADME, rat; conditions: 1 mM, 10% cecal contents, under nitrogen
Excerpt: Male Sprague–Dawley rats (250–260 g) were euthanized using CO2 gas before a midline incision was made. The contents of the intestinal tract were collected from the small intestine and cecum obtained from each of three rats and were suspended in pH 6.8 isotonic phosphate buffer to prepare a 20% (w/v) suspension. To maintain anaerobic conditions in the cecum, the cecal contents were collected under a N2 atmosphere in an atmospheric bag (AtmosBag, Sigma, St. Louis, MO, USA). Derivatives of PARP inhibitors (2 mM) dissolved in pH 6.8 isotonic phosphate buffer (5 mL) were mixed with the cecal and small intestinal suspensions (5 mL) and then incubated at 37 °C. The cecal contents were incubated in nitrogen. At predetermined time intervals, a 0.5 mL portion of the mixture was transferred to a microtube and centrifuged at 10,000× g at 4 °C for 10 min. The supernatants (0.1 mL) were mixed with MeOH (0.9 mL), followed by centrifugation at 10,000× g at 4 °C for 7 min. The supernatants were filtered through a membrane filter (0.45 μm), and the concentrations of PARP inhibitors in the filtrates (20 μL) were analyzed using HPLC.

[3] = test system: Caco-2 cell monolayer; experiment: Cell permeability via Caco-2 cell monolayer; format: in vitro ADME; conditions: 500 µM apical, concentration determined in basolateral compartment
Procedure: Caco-2 cells (4 × 10^5 per insert) were seeded and grown in Transwell 6-well inserts with a pore size of 0.4 μm (SPL Inc., Houston, TX, USA) until the transepithelial electrical resistance value (EMD Millipore, Billerica, MA, USA) reached 2000 Ω.cm^2. After removing the culture medium (DMEM) containing 1% penicillin/streptomycin from the basolateral and apical (insert) compartments, the apical compartment was filled with DMEM without phenol red (2 mL) containing PARP inhibitors and their derivatives (500 μM), whereas the basolateral compartment was filled with DMEM without phenol red (3 mL). At appropriate time intervals, the drug concentration in the basolateral compartment was determined by HPLC.

[4] = Drug concentration in the cecum after oral administration; format: in vivo, rat; conditions: rats
Procedure: Male Sprague–Dawley rats were fasted for 24 h but had access to water. 5-AIQ (10 mg/kg), AQSA-Glu (equivalent to 10 mg/kg 5-AIQ), 3-AB (17 mg/kg), and ABSA (equivalent to 17 mg/kg 3-AB) in PBS (1.0 mL) were administered to the rats by oral gavage. Blood samples were collected via cardiac puncture at 2, 4, and 8 h after the oral gavage. The blood samples were centrifuged at 10,000× g at 4 °C for 10 min to obtain the plasma (0.3 mL). The plasma (0.1 mL) was transferred to a centrifuge tube and mixed with methanol (0.9 mL). The supernatants were filtered through a membrane filter (0.45 μm), and then the filtrate (20.0 μL) was subjected to HPLC analysis. To determine drug concentrations in the cecum, cecal contents were collected at 2, 4, and 8 h after oral gavage and mixed with pH 6.8 isotonic phosphate buffer to make a 10% suspension, which was subjected to centrifugation at 10,000× g for 10 min at 4 °C. The supernatants (0.1 mL) were transferred to fresh microtubes, followed by the addition of MeOH (0.9 mL). After centrifugation at 10,000× g at 4 °C for 7 min and subsequent filtration through a membrane filter (0.45 μm), the concentrations of PARP inhibitors in the filtrates (20 μL) were analyzed using HPLC.

[5] = test system: DNBS-induced rat colitis; experiment: DNBS-induced rat colitis model (anticolitic effects); format: in vivo
Procedure: DNBS-induced colitis was produced in rats as previously described. Two independent animal experiments were performed to evaluate the anticolitic effects of the drugs. For the first experiment, the rats were divided into the following five treatment groups (n = 5 per group): group 1 (normal group), oral gavage of 1.0 mL of PBS; group 2 (colitis group), oral gavage of 1.0 mL of PBS; group 3 (5-AIQ-treated colitis group), oral gavage of 5-AIQ (5 mg/kg) in 1.0 mL of PBS; group 4 [AQSA-Glu-treated colitis group (L)], oral gavage of AQSA-Glu (7.5 mg/kg, equivalent to 2.5 mg/kg of 5-AIQ) in 1.0 mL of PBS; and group 5 [AQSA-Glu-treated colitis group (H)], oral gavage of AQSA-Glu (15 mg/kg, equivalent to 5 mg/kg of 5-AIQ) in 1.0 mL of PBS. For the second experiment, the rats were divided into the following six treatment groups (n = 5 per group): group 1 (normal group), oral gavage of 1.0 mL of PBS; group 2 (colitis group), oral gavage of 1.0 mL of PBS; group 3 (SSZ-treated colitis group), oral gavage of SSZ (50 mg/kg) in 1.0 mL of PBS; group 4 (AQSA-Glu-treated colitis group), oral gavage of AQSA-Glu (15 mg/kg) in 1.0 mL of PBS; group 5 (mixture of AQSA-Glu + OSZ-treated colitis group), oral gavage of mixture of AQSA-Glu (15 mg/kg) and OSZ (19 mg/kg, half-equimolar to 50 mg/kg of SSZ) in 1.0 mL of PBS; and group 6 (ABSA-treated colitis group), oral gavage of ABSA (36 mg/kg, equivalent to 50 mg/kg of SSZ) in 1.0 mL of PBS. Three days after the induction of inflammation, each drug was orally administered to rats once daily, and the anticolitic effects were assessed 24 h after the sixth medication. The animal experiment scheme is shown in Supplementary Data S1. The colonic damage score was calculated using a scoring system modified from previously reported criteria. The modified scoring system is shown in Supplementary Data S2. Four independent observers who were blinded to the treatment conditions scored colonic damage according to the scoring system. Myeloperoxidase (MPO) activity in the distal colon (4 cm) was measured as described previously.
Tissue samples (0.2 g/mL) were homogenized in pre-chilled radioimmunoprecipitation assay buffer (50 mM Tris-HCl [pH 7.4], 1 mM EDTA, 0.7% Na deoxycholate, 1% NP-40, 150 mM NaCl, 0.3 μM aprotinin, 1 μM pepstatin, and 1 mM phenylmethylsulfonyl fluoride). The homogenates were centrifuged at 10,000× g at 4 °C for 10 min, followed by agitation on ice for 30 min. Whole and nuclear cell lysates were prepared as described previously. The protein concentrations in the lysates were determined using bicinchoninic acid (Thermo Fisher Scientific, Waltham, MA, USA) according to the manufacturer’s instructions.
Cell and tissue lysates were separated by SDS-PAGE on 10% and 7.5% gels. Nrf2, HO-1, cyclooxygenase-2 (COX-2), and inducible nitric oxide synthase (iNOS) proteins were detected using the following antibodies: anti-Nrf2 (sc-365949, Santa Cruz Biotechnology, Dallas, TX, USA), anti-HO-1 (sc-136961, Santa Cruz Biotechnology), anti-COX-2 (sc-365374, Santa Cruz Biotechnology), anti-iNOS (NOS-2) antibody (sc-7271, Santa Cruz Biotechnology), and secondary antibodies corresponding to the primary antibodies (Santa Cruz Biotechnology). Protein bands were visualized using SuperSignal chemiluminescence substrate (Thermo Fisher Scientific). α-Tubulin were detected using antibodies specific to each protein (Santa Cruz Biotechnology) as loading controls. Western blot images were quantified using Image Lab software (version 5.2 build 14; Bio-Rad, Hercules, CA, USA). The means of the quantified values are presented under each Western blot (n = 3 for cell experiments and n = 5 for animal experiments).
The levels of the inflammatory cytokine-induced neutrophil chemoattractant-3 (CINC-3) in the inflamed distal colon were determined using a CINC-3 ELISA kit (R&D Systems, Minneapolis, MN, USA). […]

[6] = test system: PARP; parameters: method as in PMID 30196390, PMID 17235412; conditions: cited from earlier work
[7] = test system: murine macrophage RAW264.7 cells challenged with LPS; experiment: LPS-mediated induction of iNOS and COX-2 in RAW264.7 cells (Western blot); format: cell-based; conditions: pretreated 1 h with 5-ASA (20 mM), 3-AB (1 mM), 5-AIQ (10 μM), then LPS 24 h
Procedure: Tissue samples (0.2 g/mL) were homogenized in pre-chilled radioimmunoprecipitation assay buffer (50 mM Tris-HCl [pH 7.4], 1 mM EDTA, 0.7% Na deoxycholate, 1% NP-40, 150 mM NaCl, 0.3 μM aprotinin, 1 μM pepstatin, and 1 mM phenylmethylsulfonyl fluoride). The homogenates were centrifuged at 10,000× g at 4 °C for 10 min, followed by agitation on ice for 30 min. Whole and nuclear cell lysates were prepared as described previously. The protein concentrations in the lysates were determined using bicinchoninic acid (Thermo Fisher Scientific, Waltham, MA, USA) according to the manufacturer’s instructions. Cell and tissue lysates were separated by SDS-PAGE on 10% and 7.5% gels. Nrf2, HO-1, cyclooxygenase-2 (COX-2), and inducible nitric oxide synthase (iNOS) proteins were detected using the following antibodies: anti-Nrf2 (sc-365949, Santa Cruz Biotechnology, Dallas, TX, USA), anti-HO-1 (sc-136961, Santa Cruz Biotechnology), anti-COX-2 (sc-365374, Santa Cruz Biotechnology), anti-iNOS (NOS-2) antibody (sc-7271, Santa Cruz Biotechnology), and secondary antibodies corresponding to the primary antibodies (Santa Cruz Biotechnology). Protein bands were visualized using SuperSignal chemiluminescence substrate (Thermo Fisher Scientific). α-Tubulin were detected using antibodies specific to each protein (Santa Cruz Biotechnology) as loading controls. […]

[8] = parameters: method as in PMID 31743034; conditions: SSZ at an effective dose; cited from earlier work
[9] = second experiment: SSZ 50 mg/kg, AQSA-Glu 15 mg/kg, AQSA-Glu 15 mg/kg + OSZ 19 mg/kg, ABSA 36 mg/kg, oral once per day, six treatments

Structure (SMILES): Nc1cccc2cnccc12 [5-AIQ, 5-aminoisoquinoline, reference compound]
- logD [1]: 3.16
- concentrations eliciting significant PARP inhibition [6]: micromolar

Structure (SMILES): Nc1ccc(O)c(C(=O)O)c1 [5-ASA, 5-aminosalicylic acid]
- levels of iNOS and COX-2 proteins [7]: reduced the levels of iNOS and COX-2 proteins

Structure (SMILES): O=C(O)c1cc(/N=N/c2ccc(S(=O)(=O)Nc3ccccn3)cc2)ccc1O [SSZ, Sulfasalazine]
- colonic concentrations of 5-ASA after oral administration [8]: millimolar levels

Structure (SMILES): NC(=O)c1cccc(N)c1 [3-AB, 3-aminobenzamide, reference compound]
- logD [1]: 0.33
- concentrations eliciting significant PARP inhibition [6]: millimolar

Second part, led by results:

- logD [1]: -1.07
- transport via the Caco-2 cell monolayer (cell permeability) [3]: less cell-permeable than 3-AB
- amount of 3-AB delivered to the cecum ([4]; ABSA 36 mg/kg (equivalent to 17 mg/kg of 3-AB) vs 3-AB 17 mg/kg, 2, 4, 8 h): much greater amount
- amount and temporal pattern of 5-ASA accumulation in the cecum ([4]; ABSA 36 mg/kg vs equimolar SSZ 50 mg/kg, 2, 4, 8 h): comparable
Structure (SMILES): NC(=O)c1cccc(N=Nc2ccc(O)c(C(=O)O)c2)c1 [ABSA, 5-[(3-carbamoylphenyl)diazenyl]-2-hydroxybenzoic acid]
- conversion rate in cecal contents [2]: slightly higher than that of the derivatives of 5-AIQ
- effectiveness against rat colitis (anticolitic effects) ([5]; second experiment, same doses): more effective against rat colitis than SSZ and AQSA-Glu
- colonic damage and mucosal recovery [5, 9]: greater effectiveness in healing colonic injury, including mucosa, than the other single-treatment groups; also recorded: as effective against colonic damage as the mixture
- inflammatory indices: MPO activity, CINC-3, iNOS and COX-2 in inflamed colon [5, 9]: greater; also recorded: suppressed to a greater extent by ABSA than by SSZ or AQSA

- logD [1]: -1.83
- amount of 5-AIQ delivered to the cecum ([4]; AQSA-Glu 29.3 mg/kg (equivalent to 10 mg/kg of 5-AIQ) vs 5-AIQ 10.0 mg/kg, 2, 4, 8 h): much greater amount
Structure (SMILES): O=C(O)CC[C@H](NC(=O)c1cc(/N=N/c2cccc3cnccc23)ccc1O)C(=O)O [AQSA-Glu]
- mucosal recovery (H&E staining of inflamed distal colon) ([5]; first experiment, oral once per day for 6 days): greater mucosal recovery
- colonic damage (colonic damage score) ([5]; first experiment: AQSA-Glu 7.5 and 15 mg/kg (equivalent to 2.5 and 5 mg/kg of 5-AIQ) vs 5-AIQ 5 mg/kg, oral once per day for 6 days): substantially improved colonic damage in a dose-dependent manner and were more effective in ameliorating colonic damage than 5-AIQ
- MPO activity and proinflammatory mediators (CINC-3, iNOS, COX-2) in inflamed distal colon ([5]; first experiment: AQSA-Glu low and high doses vs 5-AIQ 5 mg/kg, oral once per day for 6 days): more effective in suppressing MPO activity and reducing proinflammatory mediators in the inflamed distal colon than 5-AIQ
- effectiveness against rat colitis ([5]; first experiment: AQSA-Glu low dose (2.5 mg/kg as 5-AIQ) vs 5-AIQ (5 mg/kg)): more effective against rat colitis than 5-AIQ

- logD [1]: 0.31
Structure (SMILES): O=C(O)c1cc(N=Nc2cccc3cnccc23)ccc1O [AQSA, 2-hydroxy-5-(isoquinolin-5-yldiazenyl)benzoic acid]

- logD [1]: -1.77
Structure (SMILES): O=C(O)C[C@H](NC(=O)c1cc(/N=N/c2cccc3cnccc23)ccc1O)C(=O)O [AQSA-Asp]
